This assay addresses T1, sGC α1/β1 heterodimer stably expressed in CHO-K1 cell line (CHO-K1/sGC) (Homo sapiens, UniProt Q02108+Q02153).
T1 construct: expressed in transfected cells
T1 sequence (Q02108 1-690): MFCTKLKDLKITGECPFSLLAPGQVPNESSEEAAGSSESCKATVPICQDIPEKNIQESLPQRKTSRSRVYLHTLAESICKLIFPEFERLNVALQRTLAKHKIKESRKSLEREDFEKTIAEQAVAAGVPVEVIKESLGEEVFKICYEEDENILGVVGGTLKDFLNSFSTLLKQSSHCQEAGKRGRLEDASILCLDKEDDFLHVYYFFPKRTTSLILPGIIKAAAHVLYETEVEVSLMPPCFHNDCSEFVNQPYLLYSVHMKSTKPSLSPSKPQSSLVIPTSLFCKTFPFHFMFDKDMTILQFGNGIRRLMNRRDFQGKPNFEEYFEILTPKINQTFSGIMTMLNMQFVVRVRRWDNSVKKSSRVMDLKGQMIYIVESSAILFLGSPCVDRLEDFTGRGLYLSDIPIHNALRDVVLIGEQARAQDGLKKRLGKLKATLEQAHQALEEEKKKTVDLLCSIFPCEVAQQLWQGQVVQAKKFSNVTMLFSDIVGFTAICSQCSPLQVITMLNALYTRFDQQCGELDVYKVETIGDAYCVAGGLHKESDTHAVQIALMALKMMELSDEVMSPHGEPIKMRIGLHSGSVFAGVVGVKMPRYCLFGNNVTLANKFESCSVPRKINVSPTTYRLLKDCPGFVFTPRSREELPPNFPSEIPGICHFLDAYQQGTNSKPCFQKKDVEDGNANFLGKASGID
T1 sequence (Q02153 1-619): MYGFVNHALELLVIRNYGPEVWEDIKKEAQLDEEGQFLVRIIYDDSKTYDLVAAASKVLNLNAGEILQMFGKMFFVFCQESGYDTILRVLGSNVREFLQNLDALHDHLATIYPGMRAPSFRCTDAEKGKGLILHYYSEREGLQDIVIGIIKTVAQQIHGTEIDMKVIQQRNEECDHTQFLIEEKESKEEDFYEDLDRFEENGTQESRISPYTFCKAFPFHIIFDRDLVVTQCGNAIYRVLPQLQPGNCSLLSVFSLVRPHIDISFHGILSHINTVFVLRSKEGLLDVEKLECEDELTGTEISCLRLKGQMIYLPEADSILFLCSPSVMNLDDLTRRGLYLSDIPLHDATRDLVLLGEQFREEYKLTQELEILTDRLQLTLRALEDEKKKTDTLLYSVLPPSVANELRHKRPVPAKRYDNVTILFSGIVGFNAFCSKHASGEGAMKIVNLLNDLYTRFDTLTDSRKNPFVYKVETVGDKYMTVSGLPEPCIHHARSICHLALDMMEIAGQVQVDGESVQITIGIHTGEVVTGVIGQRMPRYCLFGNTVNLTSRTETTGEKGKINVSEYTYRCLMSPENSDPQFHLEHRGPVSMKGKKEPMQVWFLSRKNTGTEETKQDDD
The experiment in a line: Cell-based sGC Functional Assay (CASA Assay), cGMP generation. As to conditions: CHO-K1/sGC cells, 1 hr at 37° C., cGMP by HTRF, 4P fit; presence or absence of 1 μM DETA-NO not given; read-out: IP (nM) (inflection point). An outline of the steps:
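CHO-K1 cells stably expressing human sGC α1/β1 (4×10^5/mL, 0.5 mM IBMX) were treated with compounds (2.5% DMSO final) ± 1 μM DETA-NO for 1 hr at 37° C. Intracellular cGMP measured by HTRF. Activity expressed as % of Compound A maximal cGMP; IP and maximum fold induction from 4P fit.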
A general note: TR-FRET usually uses a lanthanide donor and a delayed reading to cut background.

As for `O=C1Nc2nc(-c3cn4ncnc4c(CCC(F)(F)C(F)(F)F)n3)nc(O)c2C1(c1ccc(F)c(F)c1)C1CC1` (stereo not shown) [Example 123A, 5-cyclopropyl-5-(3,4-difluorophenyl)-4-hydroxy-2-(8-(3,3,4,4,4-pentafluorobutyl)-[1,2,4]triazolo[1,5-a]pyrazin-6-yl)-5H-pyrrolo[2,3-d]pyrimidin-6(7H)-one], the EC50 was determined as 204 nM.

With `CC1(c2ccc(Cl)cc2)C(=O)Nc2nc(-c3cn4ncnc4c(CCC(F)(F)C(F)(F)F)n3)nc(O)c21` (stereo not shown) [Example 126A, 5-(4-chlorophenyl)-4-hydroxy-5-methyl-2-(8-(3,3,4,4,4-pentafluorobutyl)-[1,2,4]triazolo[1,5-a]pyrazin-6-yl)-5H-pyrrolo[2,3-d]pyrimidin-6(7H)-one], the EC50 is 132 nM.

For `CCCCc1nc(-c2nc(N)c3c(n2)NC(=O)C3(c2ccc(C(F)(F)F)cn2)C2CC2)cn2ncnc12` (stereo not shown) [Example 70A, 4-amino-2-(8-butyl-[1,2,4]triazolo[1,5-a]pyrazin-6-yl)-5-cyclopropyl-5-(5-(trifluoromethyl)pyridin-2-yl)-5H-pyrrolo[2,3-d]pyrimidin-6(7H)-one], the EC50 is 41.8 nM.

As for `CC(F)(F)c1ccc(C2(C)C(=O)Nc3nc(-c4cn5ncnc5c(CCC(F)(F)C(F)(F)F)n4)nc(N)c32)cn1` (racemic) [Example 16B, 4-amino-5-(6-(1,1-difluoroethyl)pyridin-3-yl)-5-methyl-2-(8-(3,3,4,4,4-pentafluorobutyl)-[1,2,4]triazolo[1,5-a]pyrazin-6-yl)-5H-pyrrolo[2,3-d]pyrimidin-6(7H)-one], the EC50 was 13.1 nM.

On to `CC1(c2ccc(F)cn2)C(=O)Nc2nc(-c3cn4ncnc4c(CCCC(F)(F)F)n3)nc(N)c21` (stereo not shown) [Example 22B, 4-amino-5-(5-fluoropyridin-2-yl)-5-methyl-2-(8-(4,4,4-trifluorobutyl)-[1,2,4]triazolo[1,5-a]pyrazin-6-yl)-5H-pyrrolo[2,3-d]pyrimidin-6(7H)-one], for which the EC50 turned out to be 38.3 nM.

On to `CC1(c2ccccc2)C(=O)Nc2nc(-c3cn4ncnc4c(CCC(F)(F)C(F)(F)F)n3)nc(N)c21` (stereo not shown) [Example 12B, 4-amino-5-methyl-2-(8-(3,3,4,4,4-pentafluorobutyl)-[1,2,4]triazolo[1,5-a]pyrazin-6-yl)-5-phenyl-5H-pyrrolo[2,3-d]pyrimidin-6(7H)-one], for which the EC50 was 11.1 nM.

In the case of `CC1(c2ccc(F)cn2)C(=O)Nc2nc(-c3cn4ncnc4c(CCC(F)(F)F)n3)nc(N)c21` (stereo not shown) [Example 81B, 4-amino-5-(5-fluoropyridin-2-yl)-5-methyl-2-(8-(3,3,3-trifluoropropyl)-[1,2,4]triazolo[1,5-a]pyrazin-6-yl)-5H-pyrrolo[2,3-d]pyrimidin-6(7H)-one], the EC50 came out at 698 nM.

For the compound `Nc1nc(-c2cn3ncnc3c(CCCC(F)(F)F)n2)nc2c1C(c1ccc(F)cc1)(C1CC1)C(=O)N2` (stereo not shown) [Example 30B, 4-amino-5-cyclopropyl-5-(4-fluorophenyl)-2-(8-(4,4,4-trifluorobutyl)-[1,2,4]triazolo[1,5-a]pyrazin-6-yl)-5H-pyrrolo[2,3-d]pyrimidin-6(7H)-one], the EC50 was 36.7 nM.

Take `Cc1nc2c(Cc3ccc(F)cc3)nc(-c3nc(N)c4c(n3)NC(=O)[C@@]4(C)c3ccc(F)cc3)cn2n1` [Example 87B, (S)-4-amino-2-(8-(4-fluorobenzyl)-2-methyl-[1,2,4]triazolo[1,5-a]pyrazin-6-yl)-5-(4-fluorophcnyl)-5-methyl-5H-pyrrolo[2,3-d]pyrimidin-6(7H)-one]: the EC50 turned out to be 80.2 nM.

Turning to `CC1(c2ccc(O)cn2)C(=O)Nc2nc(-c3cn4ncnc4c(CCCC(F)(F)F)n3)nc(N)c21` (stereo not shown) [Example 111A, 4-amino-5-(5-hydroxypyridin-2-yl)-5-methyl-2-(8-(4,4,4-trifluorobutyl)-[1,2,4]triazolo[1,5-a]pyrazin-6-yl)-5H-pyrrolo[2,3-d]pyrimidin-6(7H)-one], the EC50 was 370 nM.

On to `C[C@@]1(c2ccc(F)cc2)C(=O)Nc2nc(-c3cn4ncnc4c(CCC(F)(F)F)n3)nc(N)c21` [Example 74A, (S)-4-amino-5-(4-fluorophenyl)-5-methyl-2-(8-(3,3,3-trifluoropropyl)-[1,2,4]triazolo[1,5-a]pyrazin-6-yl)-5,7-dihydro-6H-pyrrolo[2,3-d]pyrimidin-6-one], for which the EC50 was 55.6 nM.

`Nc1nc(-c2cn3ncnc3c(CCCC(F)(F)F)n2)nc2c1C(c1nnc(C(F)(F)F)o1)(C1CC1)C(=O)N2` (stereo not shown) [Example 106A, 4-amino-5-cyclopropyl-2-(8-(4,4,4-trifluorobutyl)-[1,2,4]triazolo[1,5-a]pyrazin-6-yl)-5-(5-(trifluoromethyl)-1,3,4-oxadiazol-2-yl)-5H-pyrrolo[2,3-d]pyrimidin-6(7H)-one]: the EC50 is 15.5 nM.

`CC1(c2nnc(C3(F)CC3)o2)C(=O)Nc2nc(-c3cn4ncnc4c(CCCC(F)(F)F)n3)nc(N)c21` (stereo not shown) [Example 109A, 4-amino-5-(5-(1-fluorocyclopropyl)-1,3,4-oxadiazol-2-yl)-5-methyl-2-(8-(4,4,4-trifluorobutyl)-[1,2,4]triazolo[1,5a]pyrazin-6-yl)-5H-pyrrolo[2,3-d] pyrimidin-6(7H)-one]: the EC50 was 7.3 nM.

Consider `CC1(c2cn(C3CC3)nn2)C(=O)Nc2nc(-c3cn4ncnc4c(CCC(F)(F)C(F)(F)F)n3)nc(N)c21` (stereo not shown) [Example 95B, 4-Amino-5-(1-cyclopropyl-1H-1,2,3-triazol-4-yl)-5-methyl-2-(8-(3,3,4,4,4-pentafluorobutyl)-[1,2,4]triazolo[1,5-a]pyrazin-6-yl)-5H-pyrrolo[2,3-d]pyrimidin-6(7H)-one], for which the EC50 turned out to be 257 nM.

`O=C1Nc2nc(-c3cn4ncnc4c(CCC(F)(F)C(F)(F)F)n3)nc(O)c2C1(c1cncc(F)c1)C1CC1` (stereo not shown) [Example 124B, 5-cyclopropyl-5-(5-fluoropyridin-3-yl)-4-hydroxy-2-(8-(3,3,4,4,4-pentafluorobutyl)-[1,2,4]triazolo[1,5-a]pyrazin-6-yl)-5H-pyrrolo[2,3-d]pyrimidin-6(7H)-one]: the EC50 worked out at 1050 nM.

`CC1(c2cncc(F)c2)C(=O)Nc2nc(-c3cn4ncnc4c(CCC(F)(F)C(F)(F)F)n3)nc(O)c21` (stereo not shown) [Example 125A, 5-(5-fluoropyridin-3-yl)-4-hydroxy-5-methyl-2-(8-(3,3,4,4,4-pentafluorobutyl)-[1,2,4]triazolo[1,5-a]pyrazin-6-yl)-5H-pyrrolo[2,3-d]pyrimidin-6(7H)-one]: the EC50 was determined as 575 nM.

In the case of `CC1(c2ccc(F)cn2)C(=O)Nc2nc(-c3cn4ncnc4c(CCCC(F)(F)F)n3)ncc21` (stereo not shown) [Example 176B], the EC50 worked out at 526 nM.

Consider `O=C1Nc2nc(-c3cn4ncnc4c(CCCC(F)(F)F)n3)nc(O)c2C1(c1ccc(F)cn1)C1CC1` (stereo not shown) [Example 150A, 5-cyclopropyl-5-(5-fluoropyridin-2-yl)-4-hydroxy-2-(8-(4,4,4-trifluorobutyl)-[1,2,4]triazolo[1,5-a]pyrazin-6-yl)-5,7-dihydro-6H-pyrrolo[2,3-d]pyrimidin-6-one], for which the EC50 came to 1220 nM.

For the compound `C[C@@]1(c2ccc(F)cc2)C(=O)Nc2nc(-c3cn4ncnc4c(CCC(F)(F)C(F)(F)F)n3)nc(O)c21` [Example 119A, (S)-5-(4-fluorophenyl)-4-hydroxy-5-methyl-2-(8-(3,3,4,4,4-pentafluorobutyl)-[1,2,4]triazolo[1,5-a]pyrazin-6-yl)-5,7-dihydro-6H-pyrrolo[2,3-d]pyrimidin-6-one], the EC50 stood at 134 nM.

The record behind these values is patent US9822130B2, “Triazolo-pyrazinyl derivatives useful as soluble guanylate cyclase activators” (Merck Sharp & Dohme Corp., priority 2014, dated 2017).
